Measurements: patent US11344554B2, “Animal and human anti-malarial agents” (Celgene Corporation, priority 2016, dated 2022)

Tested on: Plasmodium falciparum
Assay: Plasmodium falciparum in vitro [3H]-hypoxanthine parasite growth inhibition assay
Type: cell-based
Details: Erythrocyte, P. falciparum asexual blood stage parasites in human erythrocytes, [3H]-hypoxanthine uptake, read-out: Act Class (IC50 activity level)

IC50 [nM]	SMILES
100 to 200	CC(C)Nc1ncc2nc(Nc3cccc(C(F)(F)F)c3)n(C3CCNCC3)c2n1 [Cpd 66, N2-isopropyl-9-(piperidin-4-yl)-N8-(3-(trifluoromethyl)phenyl)-9H-purine-2,8-diamine]
< 100	CC1(Nc2ncc3nc(Nc4cc(Cl)cc(Cl)c4)n(C4CCNCC4)c3n2)CC1 [Cpd 41, N8-(3,5-dichlorophenyl)-N2-(1-methylcyclopropyl)-9-(piperidin-4-yl)-9H-purine-2,8-diamine]
100 to 200	CC(C)(C)Nc1ncc2nc(Nc3ccc(Cl)cc3)n(C3CCNCC3)c2n1 [Cpd 7, N2-tert-butyl-N8-(4-chlorophenyl)-9-(piperidin-4-yl)-9H-purine-2,8-diamine]
< 100	FC(F)(F)c1cc(Cl)cc(Nc2nc3cnc(NC4CCCC4)nc3n2C2CCNCC2)c1 [Cpd 53, N8-(3-chloro-5-(trifluoromethyl)phenyl)-N2-cyclopentyl-9-(piperidin-4-yl)-9H-purine-2,8-diamine]
< 100	CC(C)Nc1ncc2nc(Nc3cc(F)cc(Cl)c3)n(C3CCNCC3)c2n1 [Cpd 63, N8-(3-chloro-5-fluorophenyl)-N2-isopropyl-9-(piperidin-4-yl)-9H-purine-2,8-diamine]
200 to 500	Clc1cc(Cl)cc(Nc2nc3cnc(NC4CC4)nc3n2C2CCNCC2)c1 [Cpd 34, N2-cyclopropyl-N8-(3,5-dichlorophenyl)-9-(piperidin-4-yl)-9H-purine-2,8-diamine]
200 to 500	CC(N)CCn1c(Nc2cc(Cl)cc(C(F)(F)F)c2)nc2cnc(NC(C)(C)C)nc21 (stereo not drawn) [Cpd 112, 9-(3-aminobutyl)-N2-tert-butyl-N8-(3-chloro-5-(trifluoromethyl)phenyl)-9H-purine-2,8-diamine]
< 100	CC(C)(C)Nc1ncc2nc(Nc3cc(Cl)cc(Cl)c3)n(C3CCNCC3)c2n1 [Cpd 20, N2-tert-butyl-N8-(3,5-dichlorophenyl)-9-(piperidin-4-yl)-9H-purine-2,8-diamine]
200 to 500	CC(C)(C)Nc1ncc2nc(Nc3cccc(Cl)c3)n(CCn3ccnc3)c2n1 [Cpd 1, 9-(2-(1H-imidazol-1-yl)ethyl)-N2-tert-butyl-N8-(3-chlorophenyl)-9H-purine-2,8-diamine]
100 to 200	CC1(Nc2ncc3nc(Nc4ccc(Cl)c(C(F)(F)F)c4)n(C4CCNCC4)c3n2)CCCC1 [Cpd 90, N8-(4-chloro-3-(trifluoromethyl)phenyl)-N2-(1-methylcyclopentyl)-9-(piperidin-4-yl)-9H-purine-2,8-diamine]
100 to 200	FC(F)(F)c1cc(Nc2nc3cnc(NC4CCCC4)nc3n2C2CCNCC2)ccc1Cl [Cpd 87, N8-(4-chloro-3-(trifluoromethyl)phenyl)-N2-cyclopentyl-9-(piperidin-4-yl)-9H-purine-2,8-diamine]
< 100	CC(C)(C)Nc1ncc2nc(Nc3cc(Cl)cc(C(F)(F)F)c3)n(C3CCN(CCN)CC3)c2n1 [Cpd 39, 9-(1-(2-aminoethyl)piperidin-4-yl)-N2-tert-butyl-N8-(3-chloro-5-(trifluoromethyl)phenyl)-9H-purine-2,8-diamine]
200 to 500	CC(C)(C)Nc1ncc2nc(Nc3ccc(C(F)(F)F)c(Cl)c3)n(C3CCNCC3)c2n1 [Cpd 82, N2-tert-butyl-N8-(3-chloro-4-(trifluoromethyl)phenyl)-9-(piperidin-4-yl)-9H-purine-2,8-diamine]
200 to 500	FC(F)(F)c1ccc(Nc2nc3cnc(NC4CC4)nc3n2C2CCNCC2)cc1Cl [Cpd 81, N8-(3-chloro-4-(trifluoromethyl)phenyl)-N2-cyclopropyl-9-(piperidin-4-yl)-9H-purine-2,8-diamine]
200 to 500	FC(F)(F)c1ccc(Nc2nc3cnc(NC4CCCC4)nc3n2C2CCNCC2)cc1Cl [Cpd 92, N8-(3-chloro-4-(trifluoromethyl)phenyl)-N2-cyclopentyl-9-(piperidin-4-yl)-9H-purine-2,8-diamine]
100 to 200	CC(C)Nc1ncc2nc(Nc3ccc(Cl)c(C(F)(F)F)c3)n(C3CCNCC3)c2n1 [Cpd 79, N8-(4-chloro-3-(trifluoromethyl)phenyl)-N2-isopropyl-9-(piperidin-4-yl)-9H-purine-2,8-diamine]
< 100	CC1(Nc2ncc3nc(Nc4cccc(C(F)(F)F)c4)n(C4CCNCC4)c3n2)CCCC1 [Cpd 59, N2-(1-methylcyclopentyl)-9-(piperidin-4-yl)-N8-(3-(trifluoromethyl)phenyl)-9H-purine-2,8-diamine]
< 100	CC(C)Nc1ncc2nc(Nc3cc(Cl)cc(Cl)c3)n(C3CCNCC3)c2n1 [Cpd 43, N8-(3,5-dichlorophenyl)-N2-isopropyl-9-(piperidin-4-yl)-9H-purine-2,8-diamine]
200 to 500	CC1(Nc2ncc3nc(Nc4cccc(C(F)(F)F)c4)n(CCC4CCNC4)c3n2)CCOCC1 (stereo not drawn) [Cpd 58, N2-(4-methyltetrahydro-2H-pyran-4-yl)-9-(2-(pyrrolidin-3-yl)ethyl)-N8-(3-(trifluoromethyl)phenyl)-9H-purine-2,8-diamine]

IC50 [nM]	SMILES
< 100	CC1(Nc2ncc3nc(Nc4cc(F)cc(Cl)c4)n(C4CCNCC4)c3n2)CC1 [Cpd 64, N8-(3-chloro-5-fluorophenyl)-N2-(1-methylcyclopropyl)-9-(piperidin-4-yl)-9H-purine-2,8-diamine]
500 to 1200	CC(C)(C)Nc1ncc2nc(Nc3cccc(Cl)c3F)n(C3CCNCC3)c2n1 [Cpd 47, N2-tert-butyl-N8-(3-chloro-2-fluorophenyl)-9-(piperidin-4-yl)-9H-purine-2,8-diamine]
500 to 1200	CN(C)CCCn1c(Nc2cccc(C(F)(F)F)c2)nc2cnc(NC(C)(C)C)nc21 [Cpd 32, N2-tert-butyl-9-(3-(dimethylamino)propyl)-N8-(3-(trifluoromethyl)phenyl)-9H-purine-2,8-diamine]
< 100	CC(C)(C)Nc1ncc2nc(Nc3cccc(C(F)(F)F)c3)n(C3CCN(CCN)CC3)c2n1 [Cpd 4, 9-(1-(2-aminoethyl)piperidin-4-yl)-N2-tert-butyl-N8-(3-(trifluoromethyl)phenyl)-9H-purine-2,8-diamine]
100 to 200	CC(C)(C)Nc1ncc2nc(Nc3ccc(Cl)c(C(F)(F)F)c3)n(C3CCNCC3)c2n1 [Cpd 88, N2-tert-butyl-N8-(4-chloro-3-(trifluoromethyl)phenyl)-9-(piperidin-4-yl)-9H-purine-2,8-diamine]
100 to 200	CC(C)(C)Nc1ncc2nc(Nc3ccc(C(F)(F)F)cc3)n(C3CCN(CCN)CC3)c2n1 [Cpd 5, 9-(1-(2-aminoethyl)piperidin-4-yl)-N2-tert-butyl-N8-(4-(trifluoromethyl)phenyl)-9H-purine-2,8-diamine]
< 100	CC1(Nc2ncc3nc(Nc4cc(Cl)cc(Cl)c4)n(C4CCNCC4)c3n2)CCOCC1 [Cpd 61, N8-(3,5-dichlorophenyl)-N2-(4-methyltetrahydro-2H-pyran-4-yl)-9-(piperidin-4-yl)-9H-purine-2,8-diamine]
< 100	CC(C)(C)Nc1ncc2nc(Nc3ccc(Cl)c(Cl)c3)n(C3CCNCC3)c2n1 [Cpd 6, N2-tert-butyl-N8-(3,4-dichlorophenyl)-9-(piperidin-4-yl)-9H-purine-2,8-diamine]
100 to 200	FC(F)(F)c1cc(Cl)cc(Nc2nc3cnc(NC4CCOCC4)nc3n2C2CCNCC2)c1 [Cpd 51, N8-(3-chloro-5-(trifluoromethyl)phenyl)-9-(piperidin-4-yl)-N2-(tetrahydro-2H-pyran-4-yl)-9H-purine-2,8-diamine]
500 to 1200	CC(C)(C)Nc1ncc2nc(Nc3cccc(C(F)(F)F)c3)n(CC3CCNCC3)c2n1 [Cpd 23, N2-tert-butyl-9-(piperidin-4-ylmethyl)-N8-(3-(trifluoromethyl)phenyl)-9H-purine-2,8-diamine]
100 to 200	CC(C)(C)Nc1ncc2nc(Nc3cc(F)cc(F)c3)n(C3CCNCC3)c2n1 [Cpd 28, N2-tert-butyl-N8-(3,5-difluorophenyl)-9-(piperidin-4-yl)-9H-purine-2,8-diamine]
500 to 1200	FC(F)(F)c1cccc(Nc2nc3cnc(NC4CCOCC4)nc3n2C2CCNCC2)c1 [Cpd 46, 9-(piperidin-4-yl)-N2-(tetrahydro-2H-pyran-4-yl)-N8-(3-(trifluoromethyl)phenyl)-9H-purine-2,8-diamine]
< 100	CC(C)Nc1ncc2nc(Nc3cc(C(F)(F)F)cc(C(F)(F)F)c3)n(C3CCNCC3)c2n1 [Cpd 84, N8-(3,5-bis(trifluoromethyl)phenyl)-N2-isopropyl-9-(piperidin-4-yl)-9H-purine-2,8-diamine]
200 to 500	CC(C)(C)Nc1ncc2nc(Nc3cccc(C(F)F)c3)n(C3CCNCC3)c2n1 [Cpd 33, N2-tert-butyl-N8-(3-(difluoromethyl)phenyl)-9-(piperidin-4-yl)-9H-purine-2,8-diamine]
100 to 200	CC(C)(C)Nc1ncc2nc(Nc3cccc(C(F)(F)F)c3)n(CCC3CCNC3)c2n1 (stereo not drawn) [Cpd 18, N2-tert-butyl-9-(2-(pyrrolidin-3-yl)ethyl)-N8-(3-(trifluoromethyl)phenyl)-9H-purine-2,8-diamine]
200 to 500	CC(C)(C)Nc1ncc2nc(Nc3cccc(C(F)(F)F)c3)n(CCC3CCCN3)c2n1 (stereo not drawn) [Cpd 19, N2-tert-butyl-9-(2-(pyrrolidin-2-yl)ethyl)-N8-(3-(trifluoromethyl)phenyl)-9H-purine-2,8-diamine]
100 to 200	FC(F)(F)c1ccc(Nc2nc3cnc(NC4CCC4)nc3n2C2CCNCC2)cc1Cl [Cpd 83, N8-(3-chloro-4-(trifluoromethyl)phenyl)-N2-cyclobutyl-9-(piperidin-4-yl)-9H-purine-2,8-diamine]
< 100	CC(C)(C)Nc1ncc2nc(Nc3cc(F)cc(Cl)c3)n(C3CCNCC3)c2n1 [Cpd 26, N2-tert-butyl-N8-(3-chloro-5-fluorophenyl)-9-(piperidin-4-yl)-9H-purine-2,8-diamine]

SMILES	IC50 [nM]
CC(C)(C)Nc1ncc2nc(Nc3cccc(C(F)(F)F)c3)n(CCN3CCNCC3)c2n1 [Cpd 22, N2-tert-butyl-9-(2-(piperazin-1-yl)ethyl)-N8-(3-(trifluoromethyl)phenyl)-9H-purine-2,8-diamine]	500 to 1200

Same assay, conditions: Erythrocyte, read-out: Act Class (IC50 activity level)

SMILES	IC50 [nM]
CC(C)(C)Nc1ncc2nc(Nc3cc(Cl)cc(C(F)(F)F)c3)n(CC3CCNC3)c2n1 (stereo not drawn) [Cpd 98, N2-tert-butyl-N8-(3-chloro-5-(trifluoromethyl)phenyl)-9-(pyrrolidin-3-ylmethyl)-9H-purine-2,8-diamine]	200 to 500
